Data on three compounds can be found in PMC12368482, “Antiprotozoal Activity of Highly Substituted Pyrazole and Pyrimidine Derivatives” (Chemmedchem, 2025).

The subject of one data set is normal myoblast L6 cells. Further details: method as in PMID 17949068. The conditions noted are these: ref [15]; cited from earlier work.
In another data set the test system is Leishmania donovani. Further details: method as in PMID 17949068. Conditions: ref [15]; read-out: IC50 against Leishmania donovani; cited from earlier work.
The test system of data set [1] is P. falciparum chloroquine (CQ)‐resistant strain. On the set-up: method as in PMID 17949068. Conditions: ref [15]; read-out: IC50 against P. falciparum CQ‐resistant strain; cited from earlier work.
A further data set relates to P. falciparum W2. Kind of data set: Antiplasmodial susceptibility assay (pLDH), CQ-resistant W2 strain. In kind it is cell-based. Conditions: Plasmodium falciparum; CQ-resistant strain W2; 72 h; pLDH readout; mean of three independent experiments in duplicate; NA = not active; read-out: IC50 P. falciparum W2. As for the experimental part: (§1) Continuous in vitro Plasmodium falciparum cultures were carried out according to Trager and Jensen with slight modifications.^[ [38] ^] The CQ‐susceptible strain D10 and the CQ‐resistant strain W2 were maintained at 5% hematocrit (human type A‐positive red blood cells) in RPMI 1640 (EuroClone, Celbio) medium with the addition of 1% AlbuMax (Invitrogen, Milan, Italy), 0.01% hypoxanthine, 20 mM HEPES (at pH 7.4), and 2 mM glutamine. All the cultures were maintained at 37 °C in a low‐oxygen atmosphere consisting of 1% O2, 5% CO2, and 94% N2. Compounds were dissolved in DMSO to a stock concentration of 10 mg/ml and then diluted with complete medium to achieve the desired concentrations (final DMSO concentration <1%, which is nontoxic to the parasite). Derivatives were placed in 96‐well flat‐bottomed microplates in duplicate, and seven 1:2 serial dilutions were made directly in the plate in a volume of 100 μL. Asynchronous cultures with parasitemia of 1%–1.5% (assessed through Giemsa stained blood smears) and 1% final hematocrit were aliquoted into the plates and incubated for 72 h at 37 °C in a final volume of 200 μL/well. Uninfected erythrocytes at 2% hematocrit were used as blank. The antimalarial CQ was tested against the parasite strains as a positive control of inhibition. Parasite growth was determined spectrophotometrically (OD650) by measuring the activity of the parasite lactate dehydrogenase (pLDH), according to a modified version of the method of Makler in control and drug‐treated cultures.^[ [39] ^] The antimalarial activity was expressed as 50% inhibitory concentrations (IC50). The IC50 values were extrapolated from nonlinear regression analysis of the concentration–response curve, using the software Gen5 1.10 provided with the Synergy 4 (BioTek) reader. Each IC50 value was the mean of three independent experiments run in duplicates.

The test system of another data set is L. tropica promastigotes. Kind of data set: Antileishmanial evaluation (MTT), promastigotes. Conditions: Leishmania tropica, 72 h, NA = not active. It is filed as cell-based. As for the experimental part:
(§2) The promastigote stage of L. infantum strain MHOM/TN/80/IPT1 (kindly provided by Dr M. Gramiccia, ISS, Roma) and L. tropica strain (MHOM/IT/2012/ISS3130) were cultured in RPMI 1640 medium (EuroClone) supplemented with 10% heat‐inactivated fetal calf serum (EuroClone), 20 mM Hepes, and 2 mM L‐glutamine at 24 °C. To determine the 50% inhibitory concentration (IC50), the MTT method was used.^[ [40], [41] ^] Compounds were dissolved in DMSO and then diluted with medium to achieve the required concentrations. Drugs were placed in 96 wells round‐bottom microplates and seven serial dilutions made. Amphotericin B was used as reference antiLeishmania drug. Parasites were diluted in complete medium to 5 × 10^6 parasites mL^−1 and 100 μL of the suspension was added to each well. The plates were incubated at 24 °C for 72 h, after the incubation 20 μL of MTT solution (5 mg mL^−1) was added to each well and incubated for additional 3 h. The plates were then centrifuged at 1000 × g for 8 min at room temperature and the supernatants were discarded. The resulting pellets were dissolved in 100 μL of lysing buffer consisting of 20% w/v of a solution of SDS (Sigma), 40% of DMF (Merck) in H2O. The absorbance was measured spectrophotometrically at a test wavelength of 550 nm and a reference wavelength of 650 nm. The results were expressed as IC50 which was the concentration of compound necessary to inhibit parasite growth by 50%; each IC50 value was the mean of separate experiments performed in duplicate.

In data set [2] the test system is L. infantum promastigotes. In words: Antileishmanial evaluation (MTT), promastigotes. It is filed as cell-based. Conditions: Leishmania infantum, 72 h, NA = not active. As for the experimental part:
as §2

Data set [3] can be described thus: MTT cytotoxicity assay on fibroblasts. Conditions: human, GM-6114 embryonic human fibroblasts, compounds tested at 10 μM for 48 h, percentage of control, read-out: Cell viability GM‐6114. In kind it is cell-based. As for the experimental part: MTT assays: MTT assays were performed using GM‐6114 (embryonic human fibroblast, ATCC, Manassas, VA). The cells were grown in DMEM with 10% FBS, 2 mM glutamine, and 1% penstrep and incubated at 37 °C in 5% CO2 in a humidified environment. All reagents were purchased from EuroClone (Milan, Italy). Briefly, the cell line was plated in 96 well plates at an adequate number to reach 80%–90% of confluence at the end of the assay. 16 h after cell plating, compounds were dissolved in DMSO to give a 10 mM stock solution, diluted in growth medium, and added at a final working concentration of 10 μM. After 48 h of incubation, 30 μL of 3‐(4,5‐dimethyl‐2‐thiazolyl)‐2,5‐diphenyl‐2H‐tetrazolium bromide (MTT) at a concentration of 2 mg mL^−1 in PBS were added in each well. Then, after further 4 h of incubation, the supernatant was removed, and 100 μL/well of DMSO were used to dissolve the formazan precipitate that could be found in vital cells. After 20 min, the results were read at 570 nm by means of a plate reader. The results were expressed as percentage of the control samples in which the cells were incubated with the same amount of DMSO but without compounds. The assays were repeated three times. In each set, every single compound was tested six times. Variation among duplicates was less than 10%.
Background: Tetrazolium dyes change colour on reduction, which living cells bring about.

For another data set, the system named is P. falciparum D10. Kind of data set: Antiplasmodial susceptibility assay (pLDH), CQ-sensitive D10 strain. It is filed as cell-based. The conditions noted are these: Plasmodium falciparum; CQ-sensitive strain D10; 72 h; pLDH readout; mean of three independent experiments in duplicate; NA = not active; read-out: IC50 P. falciparum D10. The protocol: as §1

What is called IC50 is the concentration that gives 50% inhibition. Take `O=[N+]([O-])c1ccc(-n2nc(-c3ccc(Oc4ccccc4)cc3)cc2N2CCOCC2)cc1` [II]: the “cytotoxicity against normal myoblast L6 cells” value in the data set on normal myoblast L6 cells was “not cytotoxic”. Moreover, the IC50 was 4.8 µM in the data set with Leishmania donovani and 3.7 µM in data set [1].
The viability is the share of living cells, or the viability signal relative to a control. Take `N#Cc1c(-c2ccc(Cl)cc2)n[nH]c1Nc1ccccc1` [VIb, reference compound]: the IC50 in the data set on P. falciparum W2 worked out at 32.7 µM; with L. tropica promastigotes, 23.2 µM; in data set [2] it was 19.1 µM; in the data set with P. falciparum D10, 34.3 µM. Also, the viability at 48 h, 10 μM in data set [3] amounted to 70%.
On the same counts, the results for `N#Cc1c(-c2ccc(Br)cc2)n[nH]c1Nc1ccccc1` [VIc, reference compound] are 19.9 µM, 23.2 µM, 19.3 µM, 19.8 µM and 67%.
